Laboratory results published in patent US7348315B2, “Methods of treating heart failure with modified ATP, ADP and AMP compounds” (priority 1995, dated 2008).

Target: P2 purinergic receptor
Assay: Intact myocyte binding with the P2-selective radioligand [35S]ADPβS
Conditions: intact myocytes; radioligand range 0.5-200 nM; read-out: Kd of low-affinity [35S]ADPβS binding site
Method: Cardiac ventricular myocytes were prepared and incubated with progressively increasing concentrations of [^35S] ADPβS. The binding reaction is performed by the addition of a Dulbecco's Modified Eagle's Medium (which contains 1-glutamine and glucose but lacks phenol red, adenosine nucleotides, and sodium bicarbonate, buffered by HEPES, pH=7.4) containing [^35S]ADPβS (0.5 to 200 nM, for saturation isotherm study). Nonradioactive ADPβS is used to define the level of nonspecific binding. Additional purinergic agonists or antagonists are added depending on the experimental conditions. Following a 30-minute incubation at 37° C., cells are washed three times with 3 ml of ice-cold wash buffer (containing 120 mM NaCl, 5.4 mM KCl, 0.8 mM MgSO4, 1.8 mM CaCl2, 50 mM HEPES, and 1.0 mM NaH2PO4 adjusted to pH=7.4). One ml of 0.5 M NaOH is added to the monolayer culture to solubilize the cell protein and 0.5 ml of Tris buffer, pH=7.4 is added to neutralize NaOH prior to scintillation counting for ^35S.
To determine the Bmax and Kd of the specific [^35S]ADPβS binding, a computer-aided nonlinear regression analysis (LIGAND PROGRAM) is used. See, […] 1980, 107, 220-239. Both a one-site and a two-site model is applied to fit the data points.

Compound: Nc1ncnc2c1ncn2[C@@H]1O[C@H](COP(=O)(O)OP(O)(O)=S)[C@@H](O)[C@H]1O [[^35S] ADPβS, [^35S] 5′-O-2-thiodiphosphate]
- Kd: 40 nM
